According to patent publication US7985745B2, “Method for pain treatment” (Abbott Laboratories, priority 2006, dated 2011):

What was measured:
inflammatory pain = assay: Carrageenan-induced thermal hyperalgesia, hotbox assay; format: in vivo; settings: 90 minutes after carrageenan, tested 30 minutes after dosing
Method: To assess the effectiveness of representative compounds of the invention against acute model inflammatory pain, animals were tested in an acute model of carrageenan-induced thermal hyperalgesia (see for example, Honore, et al. Behavioural Brain Research 167 (2006) 355-364; Porreca, et al. Journal of Pharmacology and Experimental Therapeutics (2006) vol. 318 pp. 195-205). Carrageenan was injected into the test paw of the animal, and after 90 minutes, the test drug was administered by intraperitoneal dosing. The effect on thermal hyperalgesia was assessed in a hotbox assay which was done 30 minutes after the intraperitoneal dosing of the test drug, and the MPE (maximal percent effect) reported by comparison to the control paw (not injected with carrageenan), according to 100 times the withdrawal latency of the carrageenan injected paw (in seconds) divided by the withdrawal latency of the control (not injected with carrageenan) paw.

neuropathic pain = assay: Chung model: L5/L6 spinal nerve ligation, mechanical allodynia by von Frey filaments; format: in vivo, rat; settings: 30 minutes before testing
Method: Animals were prepared for testing, by use of a surgical procedure that induces neuropathic pain in one paw. Male Sprague Dawley rats were purchased from Charles River (Portage, Mich.). Prior to surgery, animals were housed in groups and maintained in a temperature-regulated environment. Following nerve ligation surgery, animals were housed in groups, and had access to food and water ad libitum.
The L5 and L6 spinal nerves of anesthetized rats were tightly ligated in a manner described previously (see Kim and Chung, Pain (1992) vol. 50 pp. 355-363). An incision was made on the dorsal portion of the hip and the muscle was blunt-dissected to reveal the spinal processes. The L6 transverse process was removed, and the left side L5 and L6 spinal nerves were tightly ligated with 5.0 braided silk suture. The wound was cleaned, the membrane sewn with 4.0 dissolvable Vicryl suture and the skin closed with wound clips. The paw affected by the surgical procedure (the left paw) develops an allodynic response, a hypersensitivity to mechanical and other stimuli; neuropathic pain is assessed as an increased sensitivity in the surgically affected (left) allodynic paw compared to the control paw on the right side, and measured by comparing the response of the (left side) allodynic paw to the response of the unaffected right side control paw.
For the assessment of neuropathic pain, mechanical allodynia in the affected paw of animals that had undergone spinal nerve ligation was evaluated using testing with von Frey filaments. As described previously by S. R. Chaplan, et al (“Quantitative assessment of tactile allodynia in the rat paw” J. Neurosci. Meth. (1994) vol. 53 pp. 55-63), two weeks following surgery rats were acclimated to a testing box constructed of plexiglass with a wire mesh floor which allowed access to the plantar surface of the animal's hindpaws. Using an Up-Down method (Dixon, Annual Rev. Pharmacol. Toxicol. (1980) vol. 20, pp. 441-462; Chaplan et al. “Quantitative assessment of tactile allodynia in the rat paw” J. Neuroscience Methods (1994) vol. 53 pp. 55-63), von Frey filaments of increasing stiffness were applied to the plantar surface of the hindpaws and the withdrawal response of the animals was observed; for the surgically affected paw with neuropathic pain (the left side paw) the baseline level of allodynia has a withdrawal threshold of ≦4 g of pressure. By comparison, for the control paw without allodynia (in this case the right side paw), the typical withdrawal pressure is around 15 g. Representative compounds of the invention, administered intraperitoneally 30 minutes before testing, are able to reduce the symptoms of neuropathic pain and induce a dose-dependent increase in the withdrawal threshold for allodynic (left side) limb, up to a maximum effect of 15 g. The efficacy of the compound in reducing neuropathic pain at different doses is determined by comparing response in the surgery-affected paw versus the response in the control paw. This is expressed as the MPE (maximum percent effect), or 100 times the withdrawal threshold of the allodynic (left side) divided by the withdrawal threshold of the control (right side).

[1] = tested on: mechanical allodynia after skin incision; assay: Surgical skin incision model, mechanical allodynia by von Frey hair; format: in vivo, rat
Method: This is a surgical skin incision model (Joshi, et al. Pain 123 (2006) 75-82). Animals (rats) were prepared for testing by subjecting them to a surgical procedure carried out under sterile conditions, where the plantaris muscle was elevated and incised longitudinally with the origin and insertion of the muscle remaining intact. The skin was then closed with two mattress sutures (e.g. 5-0 nylon sutures). After surgery, animals were allowed to recover on a warming plate and housed individually in cages with soft bedding. […] Animals were tested for mechanical allodynia using von Frey hair mechanical stimulation 2, 24, and 48 h after surgery as described for the Chung model.

tactile allodynia = assay: Complete Freund's adjuvant model, tactile allodynia by von Frey filaments; format: in vivo, rat; settings: 48 hours after CFA, mechanical stimulus
Method: In a separate method of assessing the effectiveness of representative compounds of the invention against hyperalgesia, animals were tested in the acute model of adjuvant-induced hyperalgesia using Complete Freund's Adjuvant (CFA) as described above, but in this case, tactile allodynia to a mechanical stimulus was measured using calibrated von Frey filaments (Stoelting, Wood Dale, Ill.). Animals were prepared as described above: a solution of Complete Freund's adjuvant (150 microliters of a 50% aqueous solution, Sigma Chemical Company, St. Louis, Mo.) was injected into the plantar surface of test paw of the animal (rat). Rats so injected develop a hyperalgesia to mechanical (touch) stimulation which is assessed 48 hours after injection of the Complete Freund's adjuvant. Withdrawal threshold was determined by increasing and decreasing stimulus intensity, and estimated using the Dixon's up-down method (Dixon, Annual Rev. Pharmacol. Toxicol. (1980) vol. 20, pp. 441-462; Chaplan et al. “Quantitative assessment of tactile allodynia in the rat paw” J. Neuroscience Methods (1994) vol. 53 pp. 55-63). Rats were placed into inverted individual plastic containers (20×12.5×20 cm) on top of a suspended wire mesh with a 1 cm^2 grid to provide access to the ventral side of the hind paws, and acclimated to the test chambers for 20 min. The von Frey filaments were presented perpendicularly to the plantar surface of the selected hind paw, and then held in this position for approximately 8 seconds with enough force to cause a slight bend in the filament. Positive responses included an abrupt withdrawal of the hind paw from the stimulus, or flinching behavior immediately following removal of the stimulus. Withdrawal threshold was determined using an up-down procedure (Dixon, Annual Rev. Pharmacol. Toxicol. (1980) vol. 20, pp. 441-462; Chaplan et al. “Quantitative assessment of tactile allodynia in the rat paw” J. Neuroscience Methods (1994) vol. 53 pp. 55-63). The strength of the maximum filament used for von Frey testing was 15.0 g.

CN1CCN(c2cc(-c3ccc(C#N)cc3)nc(N)n2)CC1.O=C(O)/C=C\C(=O)O [Example 1, 4-(2-Amino-6-(4-methylpiperazin-1-yl)pyrimidin-4-yl)benzonitrile, maleate]
MPE (inflammatory pain; 30 micromole/kg i.p.): 36% | MPE (inflammatory pain; 100 micromole/kg i.p.): 100% | MPE (neuropathic pain; 30 micromole/kg i.p.): 14% | MPE (neuropathic pain; 100 micromole/kg i.p.): 44% | MPE (neuropathic pain; 300 micromole/kg i.p.): 77% | MPE (neuropathic pain; 500 micromole/kg i.p.): 97% | MPE ([1]; 30 micromole/kg i.p.): 31% | MPE ([1]; 100 micromole/kg i.p.): 65% | MPE (tactile allodynia; 30 micromole/kg i.p.): 42% | MPE (tactile allodynia; 100 micromole/kg i.p.): 63%

CN1CCN(C(=O)c2cc3cc(Cl)ccc3[nH]2)CC1 [Example 3, reference compound]
MPE (inflammatory pain; 30 micromole/kg i.p.): 23% | MPE (inflammatory pain; 100 micromole/kg i.p.): 49% | MPE (inflammatory pain; 300 micromole/kg i.p.): 96% | MPE (neuropathic pain; 100 micromole/kg i.p.): 16% | MPE (neuropathic pain; 250 micromole/kg i.p.): 50% | MPE (neuropathic pain; 500 micromole/kg i.p.): 94% | MPE ([1]; 250 micromole/kg i.p.): 46% | MPE ([1]; 500 micromole/kg i.p.): 79% | MPE (tactile allodynia; 30 micromole/kg i.p.): 55% | MPE (tactile allodynia; 300 micromole/kg i.p.): 71%

CNC1CN(c2nc(N)nc3c2CCCc2ccccc2-3)C1 [Example 6, 4-(3-Methylamino-azetidin-1-yl)-6,7-dihydro-5H-benzo[6,7]cyclohepta[1,2-d]pyrimidin-2-ylamine]
MPE (inflammatory pain; 100 micromole/kg i.p.): 41% | MPE (neuropathic pain; 100 micromole/kg i.p.): 36% | MPE (neuropathic pain; 300 micromole/kg i.p.): 78% | MPE ([1]; 30 micromole/kg i.p.): 21% | MPE ([1]; 100 micromole/kg i.p.): 69% | MPE (tactile allodynia; 30 micromole/kg i.p.): 35% | MPE (tactile allodynia; 100 micromole/kg i.p.): 49%
